{"source": "patent US11267795B2", "about": "“Crystalline PPAR-delta agonist” (Reneo Pharmaceuticals, Inc., priority 2020, dated 2022)", "key": {"[1]": {"test_system": "Angiopoietin-like 4 (ANGPTL4)", "experiment": "In vivo expression of PPAR target gene in rat muscle"}, "[2]": {"test_system": "RXR", "experiment": "Nuclear receptor activation in human cells expressing the receptor", "type": "cell-based"}, "[3]": {"molecular_target": "T1, LXRα (Homo sapiens, UniProt Q13133)", "T1 sequence (Q13133 1-447)": "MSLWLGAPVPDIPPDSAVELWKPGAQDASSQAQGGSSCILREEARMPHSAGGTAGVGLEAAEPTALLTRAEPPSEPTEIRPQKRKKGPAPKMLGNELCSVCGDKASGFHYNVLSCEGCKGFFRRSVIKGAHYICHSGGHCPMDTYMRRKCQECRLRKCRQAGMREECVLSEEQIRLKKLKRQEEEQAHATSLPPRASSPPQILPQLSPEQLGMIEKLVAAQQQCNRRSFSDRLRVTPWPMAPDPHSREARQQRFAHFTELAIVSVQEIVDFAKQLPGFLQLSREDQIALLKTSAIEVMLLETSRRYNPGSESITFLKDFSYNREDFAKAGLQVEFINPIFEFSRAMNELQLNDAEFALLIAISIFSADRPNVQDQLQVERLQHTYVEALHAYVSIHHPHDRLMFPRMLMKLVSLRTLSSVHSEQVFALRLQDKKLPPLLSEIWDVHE", "experiment": "Nuclear receptor activation in human cells expressing the receptor", "type": "cell-based"}, "[4]": {"test_system": "PPARS regulated genes (CPT1b, PGC-1α) in mice muscle", "experiment": "In vivo expression of PPARδ regulated genes in mice muscle"}, "[5]": {"molecular_target": "T2, FXR (Homo sapiens, UniProt Q96RI1)", "T2 sequence (Q96RI1 1-486)": "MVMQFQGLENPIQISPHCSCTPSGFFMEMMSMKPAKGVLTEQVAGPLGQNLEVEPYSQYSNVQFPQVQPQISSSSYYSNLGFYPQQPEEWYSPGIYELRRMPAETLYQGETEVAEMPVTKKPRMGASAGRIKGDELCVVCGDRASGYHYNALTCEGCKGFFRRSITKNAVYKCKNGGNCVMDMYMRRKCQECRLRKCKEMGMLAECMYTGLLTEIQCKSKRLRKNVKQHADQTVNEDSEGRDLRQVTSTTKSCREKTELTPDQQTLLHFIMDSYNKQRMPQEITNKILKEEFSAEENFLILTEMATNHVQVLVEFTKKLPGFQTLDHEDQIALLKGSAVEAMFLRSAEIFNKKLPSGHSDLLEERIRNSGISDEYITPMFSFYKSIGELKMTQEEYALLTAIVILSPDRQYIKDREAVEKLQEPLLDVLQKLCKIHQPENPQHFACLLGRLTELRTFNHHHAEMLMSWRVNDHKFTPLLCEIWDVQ", "experiment": "Nuclear receptor activation in human cells expressing the receptor", "type": "cell-based"}, "[6]": {"molecular_target": "T3, PPARδ (Homo sapiens, UniProt Q03181)", "T3 sequence (Q03181 1-441)": "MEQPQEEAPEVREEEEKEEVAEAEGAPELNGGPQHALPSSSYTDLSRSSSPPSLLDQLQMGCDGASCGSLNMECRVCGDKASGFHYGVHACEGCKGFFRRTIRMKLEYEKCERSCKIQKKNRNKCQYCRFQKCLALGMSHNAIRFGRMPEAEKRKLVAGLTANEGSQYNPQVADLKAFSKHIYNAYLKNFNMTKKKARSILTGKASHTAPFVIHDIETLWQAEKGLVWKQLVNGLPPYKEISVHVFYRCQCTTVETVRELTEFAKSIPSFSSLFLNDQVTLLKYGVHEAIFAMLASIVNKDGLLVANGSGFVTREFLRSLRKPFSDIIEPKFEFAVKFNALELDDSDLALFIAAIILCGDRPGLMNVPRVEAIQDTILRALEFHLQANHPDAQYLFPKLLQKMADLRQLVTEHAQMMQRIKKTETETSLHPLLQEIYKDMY", "experiment": "PPAR agonist activity in human cell lines expressing the three PPAR isotypes", "type": "cell-based", "description": "(§1) Compound I is a PPARS agonist that is useful in the methods of treatment described herein. In human cell lines expressing the three peroxisome proliferator-activated receptor (PPAR) isotypes, Compound I is a potent (EC50<100 nM) and selective human PPARS agonist (PPARα (EC50>10 μM) and PPARγ (EC50>10 μM))."}, "[7]": {"molecular_target": "T4, PPARγ (Homo sapiens, UniProt P37231)", "T4 sequence (P37231 1-505)": "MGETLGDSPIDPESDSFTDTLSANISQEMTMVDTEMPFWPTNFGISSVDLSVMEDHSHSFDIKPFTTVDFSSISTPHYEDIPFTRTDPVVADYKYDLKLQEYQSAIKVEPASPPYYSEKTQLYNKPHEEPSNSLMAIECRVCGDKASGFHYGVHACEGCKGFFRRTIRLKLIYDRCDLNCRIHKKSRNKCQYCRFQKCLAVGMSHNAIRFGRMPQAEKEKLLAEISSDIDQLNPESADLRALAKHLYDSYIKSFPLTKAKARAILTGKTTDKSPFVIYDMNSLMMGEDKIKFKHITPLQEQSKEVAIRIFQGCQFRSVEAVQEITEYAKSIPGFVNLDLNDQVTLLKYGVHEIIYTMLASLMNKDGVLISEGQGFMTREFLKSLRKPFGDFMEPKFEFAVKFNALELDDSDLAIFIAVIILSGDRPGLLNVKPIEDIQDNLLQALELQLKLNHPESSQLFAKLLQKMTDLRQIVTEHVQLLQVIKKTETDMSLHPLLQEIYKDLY", "experiment": "PPAR agonist activity in human cell lines expressing the three PPAR isotypes", "type": "cell-based", "description": "as §1"}, "[8]": {"molecular_target": "T5, PPARα (Homo sapiens, UniProt Q07869)", "T5 sequence (Q07869 1-468)": "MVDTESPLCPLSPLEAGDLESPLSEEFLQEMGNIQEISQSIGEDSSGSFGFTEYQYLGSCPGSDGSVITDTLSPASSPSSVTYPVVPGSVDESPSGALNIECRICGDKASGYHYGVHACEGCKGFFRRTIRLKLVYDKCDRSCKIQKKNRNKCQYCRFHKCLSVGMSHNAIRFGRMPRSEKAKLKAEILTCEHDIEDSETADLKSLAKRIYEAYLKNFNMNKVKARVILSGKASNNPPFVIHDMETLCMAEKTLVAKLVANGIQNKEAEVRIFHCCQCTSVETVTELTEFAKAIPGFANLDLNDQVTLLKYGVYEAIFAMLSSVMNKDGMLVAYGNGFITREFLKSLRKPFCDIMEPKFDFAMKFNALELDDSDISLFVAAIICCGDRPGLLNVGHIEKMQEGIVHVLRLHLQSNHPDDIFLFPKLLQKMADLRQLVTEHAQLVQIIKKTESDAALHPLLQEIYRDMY", "experiment": "PPAR agonist activity in human cell lines expressing the three PPAR isotypes", "type": "cell-based", "description": "as §1"}, "[9]": {"molecular_target": "T6, LXRP (Homo sapiens, UniProt P55055)", "T6 sequence (P55055 1-460)": "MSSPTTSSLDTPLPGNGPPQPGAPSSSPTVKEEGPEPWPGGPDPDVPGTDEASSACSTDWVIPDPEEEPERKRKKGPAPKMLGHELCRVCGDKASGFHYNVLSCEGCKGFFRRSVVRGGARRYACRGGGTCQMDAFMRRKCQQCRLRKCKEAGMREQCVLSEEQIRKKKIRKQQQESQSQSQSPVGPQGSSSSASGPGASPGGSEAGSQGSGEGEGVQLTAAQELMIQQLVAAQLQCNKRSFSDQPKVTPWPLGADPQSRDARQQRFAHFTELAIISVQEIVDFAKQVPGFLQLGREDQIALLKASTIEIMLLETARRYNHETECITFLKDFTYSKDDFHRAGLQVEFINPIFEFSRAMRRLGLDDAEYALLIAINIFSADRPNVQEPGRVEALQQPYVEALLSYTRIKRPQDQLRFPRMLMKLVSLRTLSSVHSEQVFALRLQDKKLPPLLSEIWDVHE", "experiment": "Nuclear receptor activation in human cells expressing the receptor", "type": "cell-based"}, "[10]": {"details": "human cell lines expressing the PPAR isotypes"}}, "data": [{"compound": "Cc1cc(OC/C=C(/c2ccc(F)cc2)c2ccc(C#CCN3CCOCC3)cc2)ccc1OCC(=O)O", "note": "[Compound I, (E)-2-(4-((3-(4-fluorophenyl)-3-(4-(3-morpholinoprop-1-yn-1-yl)phenyl)allyl)oxy)-2-methylphenoxy)acetic acid]", "values": [{"measurement": "expression of Angiopoietin-like 4 (ANGPTL4)", "setting": "[1]", "result": "increased the expression"}, {"measurement": "activation of nuclear receptor RXR", "setting": "[2]", "result": "has not resulted in activation"}, {"measurement": "activation of nuclear receptor LXRα", "setting": "[3]", "result": "has not resulted in activation"}, {"measurement": "expression of PPARδ regulated genes (CPT1b, PGC-1α)", "setting": "[4]", "result": "altered the expression patterns"}, {"measurement": "activation of nuclear receptor FXR", "setting": "[5]", "result": "has not resulted in activation"}, {"measurement": "type of agonism at PPARδ", "setting": "[6]", "result": "full PPARS agonist"}, {"measurement": "EC50", "setting": "[6]; [10]", "result": "< 0.1", "unit": "µM"}, {"measurement": "type of agonism at PPARγ", "setting": "[7]", "result": "partial agonist"}, {"measurement": "EC50", "setting": "[7]; [10]", "result": "> 10", "unit": "µM"}, {"measurement": "type of agonism at PPARα", "setting": "[8]", "result": "partial agonist"}, {"measurement": "EC50", "setting": "[8]; [10]", "result": "> 10", "unit": "µM"}, {"measurement": "activation of nuclear receptor LXRP", "setting": "[9]", "result": "has not resulted in activation"}]}]}
